Experimental data taken from ChEMBL document CHEMBL5465560, “Selectivity Literature for EUbOPEN Chemogenomic Library” (2024).
Each block holds one compound with its values, some of them ahead of it.

What was measured:
[1] = target: T1, Serine/threonine-protein kinase LATS2 (Homo sapiens) (UniProt Q9NRM7); experiment: Selectivity interaction (Ambit KINOMEscan and KiNATiv profiling in Jurkat cells) EUB0000090b LATS2; assay type: cell-based; conditions: at 1 µM
T1 sequence (whole entry): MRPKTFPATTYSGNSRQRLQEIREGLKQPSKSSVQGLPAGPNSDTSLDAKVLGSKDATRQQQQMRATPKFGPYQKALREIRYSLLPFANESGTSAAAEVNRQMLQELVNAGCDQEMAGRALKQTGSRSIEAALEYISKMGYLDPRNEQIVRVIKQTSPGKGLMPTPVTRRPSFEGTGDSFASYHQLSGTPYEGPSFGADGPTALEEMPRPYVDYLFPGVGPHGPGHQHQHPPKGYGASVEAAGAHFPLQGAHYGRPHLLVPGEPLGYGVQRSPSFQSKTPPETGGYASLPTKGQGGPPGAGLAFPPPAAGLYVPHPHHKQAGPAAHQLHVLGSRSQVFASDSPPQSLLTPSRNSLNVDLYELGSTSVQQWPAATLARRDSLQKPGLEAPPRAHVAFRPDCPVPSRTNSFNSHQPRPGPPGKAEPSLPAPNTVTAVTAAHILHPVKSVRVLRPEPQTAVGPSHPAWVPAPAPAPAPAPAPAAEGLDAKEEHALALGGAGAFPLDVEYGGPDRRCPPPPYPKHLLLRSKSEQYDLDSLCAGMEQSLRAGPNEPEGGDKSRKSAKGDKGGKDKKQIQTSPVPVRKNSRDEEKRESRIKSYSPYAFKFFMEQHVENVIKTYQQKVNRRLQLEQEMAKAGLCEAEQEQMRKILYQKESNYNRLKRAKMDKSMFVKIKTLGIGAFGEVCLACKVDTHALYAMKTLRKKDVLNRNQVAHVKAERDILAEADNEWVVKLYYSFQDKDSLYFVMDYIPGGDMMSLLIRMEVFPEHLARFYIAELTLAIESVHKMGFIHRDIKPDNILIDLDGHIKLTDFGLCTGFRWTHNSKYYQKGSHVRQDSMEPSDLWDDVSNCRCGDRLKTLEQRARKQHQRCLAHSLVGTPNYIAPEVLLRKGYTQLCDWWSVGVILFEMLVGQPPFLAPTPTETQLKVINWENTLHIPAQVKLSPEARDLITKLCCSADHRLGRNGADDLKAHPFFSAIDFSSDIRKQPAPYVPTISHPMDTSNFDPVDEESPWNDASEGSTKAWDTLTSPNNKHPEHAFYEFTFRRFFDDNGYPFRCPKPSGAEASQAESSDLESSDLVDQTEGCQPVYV

[2] = target: AMP-activated protein kinase (AMPK) alpha-1/beta-1/gamma-1 (Homo sapiens) (UniProt P54619+Q9Y478+Q13131); experiment: (§1) Selectivity interaction (SelectScreen profiling (Invitrogen)) EUB0000607a PRKAA1; assay type: protein-complex assay; conditions: at 2 µM
[3] = target: AMPK alpha2/beta1/gamma1 (Homo sapiens) (UniProt P54646+P54619+Q9Y478); experiment: as §1; assay type: protein-complex assay; conditions: at 2 µM
[4] = target: T2, Megakaryocyte-associated tyrosine-protein kinase (Homo sapiens) (UniProt P42679); experiment: Selectivity interaction (KinomeScan (DiscoverX)) EUB0000595a MATK; conditions: at 10 µM
T2 sequence (whole entry): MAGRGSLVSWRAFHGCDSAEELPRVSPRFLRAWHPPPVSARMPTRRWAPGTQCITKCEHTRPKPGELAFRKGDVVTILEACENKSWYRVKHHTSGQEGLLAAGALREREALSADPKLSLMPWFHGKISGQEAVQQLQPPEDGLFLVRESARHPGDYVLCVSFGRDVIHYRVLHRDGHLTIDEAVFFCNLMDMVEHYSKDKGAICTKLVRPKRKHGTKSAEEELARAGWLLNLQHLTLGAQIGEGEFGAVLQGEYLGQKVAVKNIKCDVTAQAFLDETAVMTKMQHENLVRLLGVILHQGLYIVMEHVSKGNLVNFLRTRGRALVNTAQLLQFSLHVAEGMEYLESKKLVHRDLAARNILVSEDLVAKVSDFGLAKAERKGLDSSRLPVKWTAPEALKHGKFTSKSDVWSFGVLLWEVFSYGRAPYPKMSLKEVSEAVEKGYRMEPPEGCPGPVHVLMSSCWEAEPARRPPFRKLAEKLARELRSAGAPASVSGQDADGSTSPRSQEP

[5] = target: T3, Beta-adrenergic receptor kinase 1 (Homo sapiens) (UniProt P25098); experiment: Selectivity interaction (ActivX KiNativ screen (kinase selectivity in THP-1 cell lysates)) EUB0000639a ADRBK1; assay type: subcellular; conditions: lysate
T3 sequence (whole entry): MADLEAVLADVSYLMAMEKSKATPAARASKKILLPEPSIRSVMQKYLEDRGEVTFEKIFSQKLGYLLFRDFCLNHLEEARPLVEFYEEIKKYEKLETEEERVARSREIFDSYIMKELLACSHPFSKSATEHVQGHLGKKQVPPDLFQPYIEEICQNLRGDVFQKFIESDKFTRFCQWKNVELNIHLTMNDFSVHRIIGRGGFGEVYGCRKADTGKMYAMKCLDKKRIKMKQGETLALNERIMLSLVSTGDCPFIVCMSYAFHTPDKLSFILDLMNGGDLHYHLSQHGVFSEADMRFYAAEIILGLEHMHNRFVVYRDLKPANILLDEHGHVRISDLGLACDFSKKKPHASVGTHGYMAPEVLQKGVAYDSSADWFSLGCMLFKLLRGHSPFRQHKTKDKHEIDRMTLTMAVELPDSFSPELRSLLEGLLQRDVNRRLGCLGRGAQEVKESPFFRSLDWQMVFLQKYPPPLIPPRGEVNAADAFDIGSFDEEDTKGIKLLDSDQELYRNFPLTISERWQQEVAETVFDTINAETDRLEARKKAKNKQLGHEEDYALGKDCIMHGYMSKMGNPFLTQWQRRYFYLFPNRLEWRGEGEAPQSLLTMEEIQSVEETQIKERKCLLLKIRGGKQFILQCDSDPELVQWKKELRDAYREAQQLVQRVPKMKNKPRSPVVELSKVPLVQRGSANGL

[6] = target: Fibroblast growth factor receptor 2 (Homo sapiens) (UniProt P21802); experiment: Selectivity interaction (KinomeScan (DiscoverX)) EUB0000695a FGFR2; conditions: at 100 nM
Sequence of Fibroblast growth factor receptor 2 (Homo sapiens) (P21802 22-821 limits assumed): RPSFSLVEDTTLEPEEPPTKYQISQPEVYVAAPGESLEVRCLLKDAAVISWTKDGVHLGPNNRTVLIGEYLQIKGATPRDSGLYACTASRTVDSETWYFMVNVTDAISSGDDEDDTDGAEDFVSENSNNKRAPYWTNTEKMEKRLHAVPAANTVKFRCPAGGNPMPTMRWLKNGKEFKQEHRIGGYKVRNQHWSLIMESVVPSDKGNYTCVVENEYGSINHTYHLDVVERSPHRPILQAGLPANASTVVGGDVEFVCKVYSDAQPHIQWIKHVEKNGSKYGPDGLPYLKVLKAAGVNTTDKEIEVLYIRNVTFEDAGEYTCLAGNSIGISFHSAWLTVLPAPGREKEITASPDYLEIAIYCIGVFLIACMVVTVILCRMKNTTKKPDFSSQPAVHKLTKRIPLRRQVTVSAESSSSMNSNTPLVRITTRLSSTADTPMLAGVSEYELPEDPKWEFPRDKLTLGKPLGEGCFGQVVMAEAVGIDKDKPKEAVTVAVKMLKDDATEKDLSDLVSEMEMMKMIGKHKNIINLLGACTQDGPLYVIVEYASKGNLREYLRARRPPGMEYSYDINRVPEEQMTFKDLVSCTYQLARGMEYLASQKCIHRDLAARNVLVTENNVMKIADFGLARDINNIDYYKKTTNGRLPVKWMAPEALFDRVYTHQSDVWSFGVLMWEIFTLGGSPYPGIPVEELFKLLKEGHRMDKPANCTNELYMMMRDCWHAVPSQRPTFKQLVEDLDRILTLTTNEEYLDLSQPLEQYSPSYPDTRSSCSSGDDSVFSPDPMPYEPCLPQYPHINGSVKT

Sequence of AMP-activated protein kinase (AMPK) alpha-1/beta-1/gamma-1 (Homo sapiens) (P54619 whole entry): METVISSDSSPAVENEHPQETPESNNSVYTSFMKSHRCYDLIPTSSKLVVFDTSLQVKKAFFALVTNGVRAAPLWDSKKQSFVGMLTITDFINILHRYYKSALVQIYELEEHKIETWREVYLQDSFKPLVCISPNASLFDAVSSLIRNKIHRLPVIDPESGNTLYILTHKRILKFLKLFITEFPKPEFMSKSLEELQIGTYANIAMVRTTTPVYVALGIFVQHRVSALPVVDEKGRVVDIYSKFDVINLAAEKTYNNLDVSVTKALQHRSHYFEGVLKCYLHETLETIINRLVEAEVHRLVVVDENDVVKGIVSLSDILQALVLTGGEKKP
Sequence of AMP-activated protein kinase (AMPK) alpha-1/beta-1/gamma-1 (Homo sapiens) (Q13131 whole entry partner): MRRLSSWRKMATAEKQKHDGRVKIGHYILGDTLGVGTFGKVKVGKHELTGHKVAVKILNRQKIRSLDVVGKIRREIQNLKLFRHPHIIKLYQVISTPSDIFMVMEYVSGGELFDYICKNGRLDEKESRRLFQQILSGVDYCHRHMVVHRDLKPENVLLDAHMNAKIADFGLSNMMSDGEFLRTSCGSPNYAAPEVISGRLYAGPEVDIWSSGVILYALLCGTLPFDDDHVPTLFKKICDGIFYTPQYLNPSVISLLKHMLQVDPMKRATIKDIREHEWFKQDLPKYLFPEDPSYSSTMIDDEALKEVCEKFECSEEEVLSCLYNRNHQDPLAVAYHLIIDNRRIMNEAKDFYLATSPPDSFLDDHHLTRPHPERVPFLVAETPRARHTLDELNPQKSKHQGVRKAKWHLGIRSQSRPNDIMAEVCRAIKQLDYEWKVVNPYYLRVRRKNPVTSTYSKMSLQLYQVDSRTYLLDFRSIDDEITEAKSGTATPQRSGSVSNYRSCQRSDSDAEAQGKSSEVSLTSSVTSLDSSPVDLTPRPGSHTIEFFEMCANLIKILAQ
Sequence of AMP-activated protein kinase (AMPK) alpha-1/beta-1/gamma-1 (Homo sapiens) (Q9Y478 2-270 partner limits assumed): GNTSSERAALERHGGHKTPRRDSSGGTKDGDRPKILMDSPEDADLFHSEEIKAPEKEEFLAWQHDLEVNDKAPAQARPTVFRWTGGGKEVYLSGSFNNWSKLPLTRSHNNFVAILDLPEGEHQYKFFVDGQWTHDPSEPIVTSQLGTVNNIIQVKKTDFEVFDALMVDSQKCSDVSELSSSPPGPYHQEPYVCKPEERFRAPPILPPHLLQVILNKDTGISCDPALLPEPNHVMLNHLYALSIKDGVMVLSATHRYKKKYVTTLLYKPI
Sequence of AMPK alpha2/beta1/gamma1 (Homo sapiens) (P54619 whole entry partner): as the sequence (P54619 whole entry) above
Sequence of AMPK alpha2/beta1/gamma1 (Homo sapiens) (P54646 whole entry): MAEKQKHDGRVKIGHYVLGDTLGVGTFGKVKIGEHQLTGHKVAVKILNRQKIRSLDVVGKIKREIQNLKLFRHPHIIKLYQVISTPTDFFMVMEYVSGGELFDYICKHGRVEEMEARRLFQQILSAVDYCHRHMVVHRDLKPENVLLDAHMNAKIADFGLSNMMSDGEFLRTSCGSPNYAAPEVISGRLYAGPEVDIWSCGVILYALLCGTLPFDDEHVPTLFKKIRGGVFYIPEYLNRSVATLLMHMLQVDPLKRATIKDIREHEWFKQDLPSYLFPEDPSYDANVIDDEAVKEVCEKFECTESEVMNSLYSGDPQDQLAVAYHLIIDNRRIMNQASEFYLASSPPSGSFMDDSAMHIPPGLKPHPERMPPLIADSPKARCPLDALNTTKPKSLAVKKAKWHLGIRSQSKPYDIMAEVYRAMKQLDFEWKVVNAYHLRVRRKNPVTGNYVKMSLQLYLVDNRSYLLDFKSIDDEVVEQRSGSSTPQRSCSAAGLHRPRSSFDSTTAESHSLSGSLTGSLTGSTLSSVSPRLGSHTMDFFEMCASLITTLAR
Sequence of AMPK alpha2/beta1/gamma1 (Homo sapiens) (Q9Y478 2-270 partner limits assumed): as the sequence (Q9Y478 2-270 partner limits assumed) above

Structure (SMILES): CN(C)C/C=C/C(=O)Nc1ccc(C(=O)N2CCCC(Nc3ncc(Cl)c(-c4c[nH]c5ccccc45)n3)C2)cc1 (stereo not given)
% of control [1]: 100%

Structure (SMILES): CNC(=O)Nc1ccc(-c2nc(N3CC4CCC(C3)O4)c3cnn(C4CCC5(CC4)OCCO5)c3n2)cc1
% of inhibition [2]: 5% | % of inhibition [3]: 7%

Structure (SMILES): COCC(=O)NC/C=C/c1ccc2ncnc(Nc3ccc(Oc4ccc(C)nc4)c(C)c3)c2c1 [CP-724714]
% of control [4]: 100%

% of inhibition ([5]; at 0.01 µM): 5.6% | % of inhibition ([5]; at 0.04 µM): 8% | % of inhibition ([5]; at 0.2 µM): 9.7% | % of inhibition ([5]; at 1 µM): 14.3% | % of inhibition ([5]; at 5 µM): 12.1%
Structure (SMILES): CC[C@@H]1[C@H](F)C(=O)N[C@@H]1COc1nccc2cc(C(N)=O)c(OC)cc12 [ZIMLOVISERTIB]

Structure (SMILES): Cc1cc(F)c(C(=O)Nc2cccc(-c3nncn3C(C)C)n2)cc1-n1cnc(C2CC2)c1
% of control [6]: 97%
